Measured values: the CheMixHub viscosity set
“And” between values parts separate entries of the source, which are not always exact repeats. Identical values can stand only once.

Assay: xn = mol fraction of the nth substance listed

CN(C)CCO + O
viscosity
Conditions | 293.15 K | 298.15 K | 303.15 K | 308.15 K | 313.15 K | 318.15 K | 323.15 K
101 kPa, x1 = 0.03444 | – | – | 1.45 mPa·s | – | 1.14 mPa·s | – | 0.91 mPa·s
101 kPa, x1 = 0.05 | – | – | 1.921 mPa·s | 1.657 mPa·s | – | 1.271 mPa·s | –
101 kPa, x1 = 0.07971 | – | – | 2.95 mPa·s and 2.92 mPa·s | – | 2.01 mPa·s | – | 1.56 mPa·s and 1.51 mPa·s
101 kPa, x1 = 0.08 | 4.245 mPa·s | 3.487 mPa·s | 2.898 mPa·s | 2.44 mPa·s | – | 1.791 mPa·s | 1.557 mPa·s
101 kPa, x1 = 0.1003 | – | – | 3.662 mPa·s | 3.042 mPa·s | 2.555 mPa·s | 2.183 mPa·s | –
101 kPa, x1 = 0.1187 | – | – | 4.64 mPa·s | – | 3.19 mPa·s | – | 2.31 mPa·s
101 kPa, x1 = 0.1419 | – | – | 5.19 mPa·s | – | – | – | 2.51 mPa·s
101 kPa, x1 = 0.1993 | – | – | 7.496 mPa·s | 6.012 mPa·s | 4.87 mPa·s | 4.018 mPa·s | –
101 kPa, x1 = 0.2947 | – | – | 9.838 mPa·s | 7.806 mPa·s | 6.256 mPa·s | 5.104 mPa·s | –
101 kPa, x1 = 0.3489 | – | – | 10.24 mPa·s | 8.126 mPa·s | 6.525 mPa·s | 5.309 mPa·s | –
101 kPa, x1 = 0.4004 | – | – | 10.1 mPa·s | 8.019 mPa·s | 6.443 mPa·s | 5.268 mPa·s | –
101 kPa, x1 = 0.453 | – | – | 9.546 mPa·s | 7.626 mPa·s | 6.189 mPa·s | 5.067 mPa·s | –
101 kPa, x1 = 0.504 | – | – | 8.735 mPa·s | 7.048 mPa·s | 5.741 mPa·s | 4.741 mPa·s | –
101 kPa, x1 = 0.6047 | – | – | 7.076 mPa·s | 5.815 mPa·s | 4.809 mPa·s | 4.041 mPa·s | –
101 kPa, x1 = 0.7044 | – | – | 5.567 mPa·s | 4.675 mPa·s | 3.934 mPa·s | 3.341 mPa·s | –
101 kPa, x1 = 0.8062 | – | – | 4.37 mPa·s | 3.722 mPa·s | 3.184 mPa·s | 2.756 mPa·s | –
101 kPa, x1 = 0.9046 | – | – | 3.485 mPa·s | 3.015 mPa·s | 2.615 mPa·s | 2.293 mPa·s | –
101.3 kPa, x1 = 0.1001 | 6.55 mPa·s | – | 4 mPa·s | – | 2.56 mPa·s | – | –
101.3 kPa, x1 = 0.1999 | 10.56 mPa·s | – | 6.7 mPa·s | – | 4.2 mPa·s | – | 3.19 mPa·s
101.3 kPa, x1 = 0.3 | 13.17 mPa·s | – | 8.53 mPa·s | – | 5.23 mPa·s | – | 3.69 mPa·s
101.3 kPa, x1 = 0.4 | 14.4 mPa·s | – | 9.37 mPa·s | – | 5.7 mPa·s | – | 3.86 mPa·s
101.3 kPa, x1 = 0.5 | 14.13 mPa·s | – | 9.3 mPa·s | – | 5.61 mPa·s | – | 3.65 mPa·s
101.3 kPa, x1 = 0.6001 | 12.81 mPa·s | – | 8.61 mPa·s | – | 5.08 mPa·s | – | 3.16 mPa·s
101.3 kPa, x1 = 0.6998 | 10.51 mPa·s | – | 7.1 mPa·s | – | 4.26 mPa·s | – | 2.64 mPa·s
101.3 kPa, x1 = 0.8 | 7.76 mPa·s | – | 5.27 mPa·s | – | – | – | 2.12 mPa·s
101.3 kPa, x1 = 0.9001 | 5.2 mPa·s | – | 3.53 mPa·s | – | 2.4 mPa·s | – | 1.84 mPa·s
